Laboratory results: article PMC11145269 (Proceedings of the National Academy of Sciences of the …, 2024)
Read-outs that look alike come from different tables or passages of the source.

Legend:
Test in all cases: two-electrode voltage clamp, X. laevis oocytes
Format in all cases: cell-based
[1] = target: T1, NALCN WT channel complex (+UNC79, UNC80, and FAM155A) (Homo sapiens, UniProt Q8IZF0); details: buffer same
T1 construct: codon-optimised human cDNAs in modified pcDNA3.1(+); four mRNAs 1:1:1:1 co-injected in Xenopus laevis oocytes; 7SX3 is the human channelosome structure used for modelling; with Protein unc-79 homolog; Protein unc-80 homolog; NALCN channel auxiliary factor 1

[2] = target: T1, NALCN WT channel complex (+UNC79, UNC80, and FAM155A); details: buffer same; remark: listed apart in the source
[3] = target: T2, NALCN WT channel complex (+UNC79, UNC80, and FAM155A) (Homo sapiens, UniProt Q8IZF0, L588A/M1145A/W311A/Y1436A)
T2 construct: codon-optimised human cDNAs in modified pcDNA3.1(+); four mRNAs 1:1:1:1 co-injected in Xenopus laevis oocytes; 7SX3 is the human channelosome structure used for modelling; with Protein unc-79 homolog; Protein unc-80 homolog; NALCN channel auxiliary factor 1

[4] = target: T3, NALCN WT channel complex (+UNC79, UNC80, and FAM155A) (Homo sapiens, UniProt Q8IZF0, M1145A); details: read-out: % inhibition at 300 μM (-100 mV)
T3 construct: codon-optimised human cDNAs in modified pcDNA3.1(+); four mRNAs 1:1:1:1 co-injected in Xenopus laevis oocytes; 7SX3 is the human channelosome structure used for modelling; with Protein unc-79 homolog; Protein unc-80 homolog; NALCN channel auxiliary factor 1

[5] = target: T1, NALCN WT channel complex (+UNC79, UNC80, and FAM155A); details: inhibition of outward and inward currents, E/Z isomer mixture, buffer same
[6] = target: T1, NALCN WT channel complex (+UNC79, UNC80, and FAM155A)
[7] = outward current inhibited, inward potentiated
[8] = outward inhibited more than inward current
[9] = read-out: % inhibition at 1 mM (-100 mV)
[10] = read-out: % inhibition at 1 mM (+80 mV)

## COc1ccc([C@@H]2Sc3ccccc3N(CCN(C)C)C(=O)[C@@H]2OC(C)=O)cc1 [diltiazem]
[1]; [7]
  % inhibition at 300 μM: three inhibited the outward and potentiated the inward currents (quinidine, diltiazem, and propafenone)

## CN(C)CCCC1(c2ccc(F)cc2)OCc2cc(C#N)ccc21 (centres unmarked) [citalopram]
[2]; [8]
  % inhibition at 1 mM: three (hydroxyzine, promethazine, and citalopram) had a stronger inhibitory effect on the outward

## CC(CN1c2ccccc2Sc2ccccc21)N(C)C (centres unmarked) [promethazine]
[2]; [8]
  % inhibition at 1 mM: three (hydroxyzine, promethazine, and citalopram) had a stronger inhibitory effect on the outward

## O=C1NC(=O)C(c2ccccc2)(c2ccccc2)N1 [phenytoin]
[3]; read-out: % inhibition at 300 μM (-100 mV)
  inhibition at 300 µM: 64.8 ± 6.7%
[4]
  inhibition at 300 µM: 31 ± 9.2%

## C=C[C@H]1CN2CC[C@H]1C[C@@H]2[C@@H](O)c1ccnc2ccc(OC)cc12 [quinidine]
[1]; [7]
  % inhibition at 300 μM: three inhibited the outward and potentiated the inward currents (quinidine, diltiazem, and propafenone)

## CC(C)n1c(/C=C/C(O)CC(O)CC(=O)O)c(-c2ccc(F)cc2)c2ccccc21 (centres unmarked) [fluvastatin]
[2]; inhibition of inward current only
  % inhibition at 1 mM: one (fluvastatin) had no effect on the outward current, but inhibited the inward current efficaciously

## O=C(O)COCCN1CCN(C(c2ccccc2)c2ccc(Cl)cc2)CC1 (centres unmarked) [cetirizine]
[2]; inhibition of outward and inward currents
  % inhibition at 1 mM: two (cetirizine and (E/Z)-endoxifen) inhibited both outward and inward currents

## Nc1nnc(-c2cccc(Cl)c2Cl)c(N)n1 [lamotrigine]
[1]; inhibition of inward current
  % inhibition at 300 μM: two selectively inhibited the outward (CP96345) or inward (lamotrigine) currents

## CCC(=C(c1ccc(O)cc1)c1ccc(OCCNC)cc1)c1ccccc1 (mixture of isomers) [(E/Z)-endoxifen]
[5]
  % inhibition at 100 μM: two (cetirizine and (E/Z)-endoxifen) inhibited both outward and inward currents

## COc1ccccc1CN[C@H]1C2CCN(CC2)[C@H]1C(c1ccccc1)c1ccccc1 [CP96345]
[1]; inhibition of outward current
  % inhibition at 300 μM: two selectively inhibited the outward (CP96345) or inward (lamotrigine) currents

## NCCOB(c1ccccc1)c1ccccc1 [2-APB, 2-aminoethoxydiphenyl borate]
[3]; [9]
  inhibition at 1000 µM: 32.9 ± 12.9%
[6]; [9]
  inhibition at 1000 µM: 70.2 ± 8.2%

## OCCOCCN1CCN(C(c2ccccc2)c2ccc(Cl)cc2)CC1 (centres unmarked) [hydroxyzine]
[2]; [8]
  % inhibition at 1 mM: three (hydroxyzine, promethazine, and citalopram) had a stronger inhibitory effect on the outward

## CN(C)CCOC(c1ccccc1)c1ccccc1 [DPH, diphenhydramine]
[6]; [10]
  inhibition at 1000 µM: 60.3 ± 4.3%

## CCCNCC(O)COc1ccccc1C(=O)CCc1ccccc1 (centres unmarked) [propafenone]
[1]; [7]
  % inhibition at 300 μM: three inhibited the outward and potentiated the inward currents (quinidine, diltiazem, and propafenone)

## c1ccc(B(OB(c2ccccc2)c2ccccc2)c2ccccc2)cc1 [DPBA, diphenylborinic anhydride]
[6]; [10]
  inhibition at 1000 µM: 66.9 ± 4%
